Reference: ChEMBL document CHEMBL3885861, “Open TG-GATES”

Species: Rattus norvegicus
Assay: Open TG-GATES - Regimen: Daily Repeat
Format: toxicity, organism-based, Sprague-Dawley
Parameters: regimen Daily Repeat, gender Male, age 6 weeks
Conditions: in vivo, po, 30 mg/kg, route gavage, dose level Middle; for APTT / Bas / Eos / Fbg / Hb / Ht / Lym / MCH / MCHC / MCV / Mono / Neu / PT / Plat / RBC / Ret / WBC: tissue Blood; for KIDNEY_L / KIDNEY_R / KIDNEY_TOTAL: tissue Kidney; for LIVER: tissue Liver; for A/G / ALP / ALT / AST / BUN / CRE / Ca / Cl / DBIL / GLC / IP / K / LDH / Na / PL / RALB / TBIL / TC / TG / TP / gamma-GTP: tissue Plasma

O=C1CN(/N=C/c2ccc([N+](=O)[O-])o2)C(=O)N1 [NITROFURANTOIN]
TERMINAL_BW (72 h, time 3 day): 243.4 g
APTT (72 h, time 3 day): 18.9 s
Bas (72 h, time 3 day): 0%
Eos (72 h, time 3 day): 1%
Fbg (72 h, time 3 day): 216.2 mg/dL
Hb (72 h, time 3 day): 13.6 g/dL
Ht (72 h, time 3 day): 38.5%
Lym (72 h, time 3 day): 79.4%
MCH (72 h, time 3 day): 22 pg
MCHC (72 h, time 3 day): 35.3%
MCV (72 h, time 3 day): 62.3 fL
Mono (72 h, time 3 day): 3.2%
Neu (72 h, time 3 day): 15.4%
PT (72 h, time 3 day): 12.6 s
Plat (72 h, time 3 day): 121.2 x10_4/uL
RBC (72 h, time 3 day): 617.8 x10_4/ul
Ret (72 h, time 3 day): 6.3%
WBC (72 h, time 3 day): 106.9 x10_2/uL
KIDNEY_L (72 h, time 3 day): 1 g
KIDNEY_R (72 h, time 3 day): 1 g
KIDNEY_TOTAL (72 h, time 3 day): 2.1 g
LIVER (72 h, time 3 day): 11.6 g
A/G (72 h, time 3 day): 1.6
ALP (72 h, time 3 day): 1110 IU/L
ALT (72 h, time 3 day): 35.4 IU/L
AST (72 h, time 3 day): 67.2 IU/L
BUN (72 h, time 3 day): 14.2 mg/dL
CRE (72 h, time 3 day): 0.4 mg/dL
Ca (72 h, time 3 day): 10.6 mg/dL
Cl (72 h, time 3 day): 101.6 meq/L
DBIL (72 h, time 3 day): 0.094 mg/dL
GLC (72 h, time 3 day): 210.8 mg/dL
IP (72 h, time 3 day): 7.6 mg/dL
K (72 h, time 3 day): 3.8 meq/L
LDH (72 h, time 3 day): 212 IU/L
Na (72 h, time 3 day): 140.4 meq/L
PL (72 h, time 3 day): 140.2 mg/dL
RALB (72 h, time 3 day): 3.5 g/dL
TBIL (72 h, time 3 day): 0.1 mg/dL
TC (72 h, time 3 day): 70.6 mg/dL
TG (72 h, time 3 day): 80.2 mg/dL
TP (72 h, time 3 day): 5.6 g/dL
gamma-GTP (72 h, time 3 day): 1 IU/L
TERMINAL_BW ([…], time 7 day): 275.5 g
TERMINAL_BW ([…], time 14 day): 332 g
TERMINAL_BW ([…], time 28 day): 404.8 g
APTT ([…], time 7 day): 18.5 s
Bas ([…], time 7 day): 0%
Eos ([…], time 7 day): 1%
Fbg ([…], time 7 day): 223 mg/dL
Hb ([…], time 7 day): 13.5 g/dL
Ht ([…], time 7 day): 38%
Lym ([…], time 7 day): 81%
MCH ([…], time 7 day): 21.3 pg
MCHC ([…], time 7 day): 35.6%
MCV ([…], time 7 day): 60 fL
Mono ([…], time 7 day): 2.2%
Neu ([…], time 7 day): 15.4%
PT ([…], time 7 day): 12.6 s
Plat ([…], time 7 day): 125.8 x10_4/uL
RBC ([…], time 7 day): 634.2 x10_4/ul
Ret ([…], time 7 day): 5.3%
WBC ([…], time 7 day): 120.4 x10_2/uL
APTT ([…], time 14 day): 18.9 s
Bas ([…], time 14 day): 0%
Eos ([…], time 14 day): 0.8%
Fbg ([…], time 14 day): 224 mg/dL
Hb ([…], time 14 day): 14.4 g/dL
Ht ([…], time 14 day): 41.6%
Lym ([…], time 14 day): 79.4%
MCH ([…], time 14 day): 20.8 pg
MCHC ([…], time 14 day): 34.7%
MCV ([…], time 14 day): 60 fL
Mono ([…], time 14 day): 2.2%
Neu ([…], time 14 day): 16.8%
PT ([…], time 14 day): 12.4 s
Plat ([…], time 14 day): 120.1 x10_4/uL
RBC ([…], time 14 day): 693 x10_4/ul
Ret ([…], time 14 day): 4.7%
WBC ([…], time 14 day): 121.2 x10_2/uL
APTT ([…], time 28 day): 20.8 s
Bas ([…], time 28 day): 0%
Eos ([…], time 28 day): 1.2%
Fbg ([…], time 28 day): 215 mg/dL
Hb ([…], time 28 day): 15.3 g/dL
Ht ([…], time 28 day): 43.5%
Lym ([…], time 28 day): 80.8%
MCH ([…], time 28 day): 19.8 pg
MCHC ([…], time 28 day): 35.1%
MCV ([…], time 28 day): 56.5 fL
Mono ([…], time 28 day): 2.6%
Neu ([…], time 28 day): 14.2%
PT ([…], time 28 day): 12.7 s
Plat ([…], time 28 day): 118.4 x10_4/uL
RBC ([…], time 28 day): 770.8 x10_4/ul
Ret ([…], time 28 day): 2.9%
WBC ([…], time 28 day): 92.9 x10_2/uL
KIDNEY_L ([…], time 7 day): 1.1 g
KIDNEY_R ([…], time 7 day): 1.1 g
KIDNEY_TOTAL ([…], time 7 day): 2.2 g
KIDNEY_L ([…], time 14 day): 1.4 g
KIDNEY_R ([…], time 14 day): 1.4 g
KIDNEY_TOTAL ([…], time 14 day): 2.7 g
KIDNEY_L ([…], time 28 day): 1.5 g
KIDNEY_R ([…], time 28 day): 1.5 g
KIDNEY_TOTAL ([…], time 28 day): 3 g
LIVER ([…], time 7 day): 12.9 g
LIVER ([…], time 14 day): 14.8 g
LIVER ([…], time 28 day): 16.9 g
A/G ([…], time 7 day): 1.3
ALP ([…], time 7 day): 965 IU/L
ALT ([…], time 7 day): 30.6 IU/L
AST ([…], time 7 day): 57.6 IU/L
BUN ([…], time 7 day): 17.6 mg/dL
CRE ([…], time 7 day): 0.4 mg/dL
Ca ([…], time 7 day): 10.7 mg/dL
Cl ([…], time 7 day): 101.8 meq/L
DBIL ([…], time 7 day): 0.1 mg/dL
GLC ([…], time 7 day): 197.6 mg/dL
IP ([…], time 7 day): 7.1 mg/dL
K ([…], time 7 day): 4.2 meq/L
LDH ([…], time 7 day): 193 IU/L
Na ([…], time 7 day): 140.4 meq/L
PL ([…], time 7 day): 164 mg/dL
RALB ([…], time 7 day): 3.3 g/dL
TBIL ([…], time 7 day): 0.2 mg/dL
TC ([…], time 7 day): 80.6 mg/dL
TG ([…], time 7 day): 163.2 mg/dL
TP ([…], time 7 day): 5.8 g/dL
gamma-GTP ([…], time 7 day): 1.2 IU/L
A/G ([…], time 14 day): 1.4
ALP ([…], time 14 day): 790.8 IU/L
ALT ([…], time 14 day): 33.2 IU/L
AST ([…], time 14 day): 58 IU/L
BUN ([…], time 14 day): 15.8 mg/dL
CRE ([…], time 14 day): 0.4 mg/dL
Ca ([…], time 14 day): 10.4 mg/dL
Cl ([…], time 14 day): 102.8 meq/L
DBIL ([…], time 14 day): 0.1 mg/dL
GLC ([…], time 14 day): 212.6 mg/dL
IP ([…], time 14 day): 7.1 mg/dL
K ([…], time 14 day): 3.7 meq/L
LDH ([…], time 14 day): 180.8 IU/L
Na ([…], time 14 day): 140.6 meq/L
PL ([…], time 14 day): 161.4 mg/dL
RALB ([…], time 14 day): 3.4 g/dL
TBIL ([…], time 14 day): 0.2 mg/dL
TC ([…], time 14 day): 78 mg/dL
TG ([…], time 14 day): 126.6 mg/dL
TP ([…], time 14 day): 5.9 g/dL
gamma-GTP ([…], time 14 day): 1.2 IU/L
A/G ([…], time 28 day): 1.4
ALP ([…], time 28 day): 568.2 IU/L
ALT ([…], time 28 day): 31.6 IU/L
AST ([…], time 28 day): 54.4 IU/L
BUN ([…], time 28 day): 16.4 mg/dL
CRE ([…], time 28 day): 0.5 mg/dL
Ca ([…], time 28 day): 10.5 mg/dL
Cl ([…], time 28 day): 103.2 meq/L
DBIL ([…], time 28 day): 0.1 mg/dL
GLC ([…], time 28 day): 208 mg/dL
IP ([…], time 28 day): 6.3 mg/dL
K ([…], time 28 day): 3.5 meq/L
LDH ([…], time 28 day): 133.4 IU/L
Na ([…], time 28 day): 140.6 meq/L
PL ([…], time 28 day): 146 mg/dL
RALB ([…], time 28 day): 3.6 g/dL
TBIL ([…], time 28 day): 0.2 mg/dL
TC ([…], time 28 day): 66.4 mg/dL
TG ([…], time 28 day): 137.6 mg/dL
TP ([…], time 28 day): 6.1 g/dL
gamma-GTP ([…], time 28 day): 1.4 IU/L
